For 20 compounds, Kd results are on record in paper PMC4061985 (Journal of immunology (Baltimore, Md. : 1950), 2009).

Residues, ends and D or L forms follow the SMILES beside them.

The test has as its target HLA-DR0901 protein (Homo sapiens, UniProt P01903+P01911, A100R/A103E/D57H/D86V/F55Y/F60I/F76Y/I96F/K127E/L162R/M171V/P40D/Q125H/Q99R/R33Q/R42F/S133A/S66N/T210M/V115G/W38K/Y107V/Y59G/Y89S). The experiment in a line: Peptide binding competition assay, DR0901.
`CC[C@H](C)[C@H](NC(=O)[C@@H](NC(=O)[C@@H]1CCCN1C(=O)[C@H](CC(=O)O)NC(=O)[C@H](CC(C)C)NC(=O)[C@H](CO)NC(=O)[C@H](Cc1ccc(O)cc1)NC(=O)[C@H](CC(N)=O)NC(=O)[C@H](Cc1ccccc1)NC(=O)[C@H](CC(N)=O)NC(=O)[C@@H](N)CC(C)C)[C@@H](C)CC)C(=O)N[C@H](C(=O)N[C@@H](CC(=O)O)C(=O)O)C(C)C` [LNFNYSLDPIIVD] (H-LNFNYSLDPIIVD-OH) showed a Kd of 0.036 ± 0.012 µM.
The result for `CC[C@H](C)[C@H](NC(=O)[C@H](CCCCN)NC(=O)[C@H](CC(=O)O)NC(=O)[C@H](CC(C)C)NC(=O)[C@H](CO)NC(=O)[C@H](Cc1ccc(O)cc1)NC(=O)[C@H](CC(N)=O)NC(=O)[C@H](Cc1ccccc1)NC(=O)[C@H](CC(N)=O)NC(=O)[C@@H](N)CC(C)C)C(=O)N[C@@H](Cc1ccc(O)cc1)C(=O)N[C@H](C(=O)N[C@@H](CC(=O)O)C(=O)O)C(C)C` [LNFNYSLDKIYVD] (H-LNFNYSLDKIYVD-OH) reads 0.24 ± 0.033 µM.
The result for `CC[C@H](C)[C@H](NC(=O)[C@H](CCCCN)NC(=O)[C@H](CCCNC(=N)N)NC(=O)[C@H](CC(C)C)NC(=O)[C@H](CO)NC(=O)[C@H](Cc1ccc(O)cc1)NC(=O)[C@H](CC(N)=O)NC(=O)[C@H](Cc1ccccc1)NC(=O)[C@H](CC(N)=O)NC(=O)[C@@H](N)CC(C)C)C(=O)N[C@H](C(=O)N[C@H](C(=O)N[C@@H](CC(=O)O)C(=O)O)C(C)C)[C@@H](C)CC` [LNFNYSLRKIIVD] (H-LNFNYSLRKIIVD-OH) reads 0.13 ± 0.019 µM; that for `CC[C@H](C)[C@H](NC(=O)[C@H](CCCCN)NC(=O)[C@H](CC(=O)O)NC(=O)[C@H](CC(C)C)NC(=O)[C@H](CO)NC(=O)[C@H](Cc1ccc(O)cc1)NC(=O)[C@H](CC(N)=O)NC(=O)[C@H](Cc1ccccc1)NC(=O)[C@H](CC(N)=O)NC(=O)[C@@H](N)CC(C)C)C(=O)N[C@@H](C)C(=O)N[C@H](C(=O)N[C@@H](CC(=O)O)C(=O)O)C(C)C` [LNFNYSLDKIAVD] (H-LNFNYSLDKIAVD-OH), 0.94 ± 0.25 µM; that for `CC[C@H](C)[C@H](NC(=O)[C@H](CCCCN)NC(=O)[C@H](CC(=O)O)NC(=O)[C@H](CC(C)C)NC(=O)[C@H](CO)NC(=O)[C@H](Cc1ccc(O)cc1)NC(=O)[C@H](CC(N)=O)NC(=O)[C@H](CC(C)C)NC(=O)[C@H](CC(N)=O)NC(=O)[C@@H](N)CC(C)C)C(=O)N[C@H](C(=O)N[C@H](C(=O)N[C@@H](CC(=O)O)C(=O)O)C(C)C)[C@@H](C)CC` [LNLNYSLDKIIVD] (H-LNLNYSLDKIIVD-OH), 0.45 ± 0.08 µM.
The result for `CC[C@H](C)[C@H](NC(=O)[C@H](CCCCN)NC(=O)[C@H](CC(=O)O)NC(=O)[C@H](CC(C)C)NC(=O)[C@H](CO)NC(=O)[C@H](Cc1ccc(O)cc1)NC(=O)[C@H](CC(N)=O)NC(=O)[C@H](Cc1ccccc1)NC(=O)[C@H](CC(N)=O)NC(=O)[C@@H](N)CC(C)C)C(=O)N[C@@H](CC(=O)O)C(=O)N[C@H](C(=O)N[C@@H](CC(=O)O)C(=O)O)C(C)C` [LNFNYSLDKIDVD] (H-LNFNYSLDKIDVD-OH) reads 0.79 ± 0.12 µM; that for `CC[C@H](C)[C@H](NC(=O)[C@H](CCSC)NC(=O)[C@H](CC(=O)O)NC(=O)[C@H](CC(C)C)NC(=O)[C@H](CO)NC(=O)[C@H](Cc1ccc(O)cc1)NC(=O)[C@H](CC(N)=O)NC(=O)[C@H](Cc1ccccc1)NC(=O)[C@H](CC(N)=O)NC(=O)[C@@H](N)CC(C)C)C(=O)N[C@H](C(=O)N[C@H](C(=O)N[C@@H](CC(=O)O)C(=O)O)C(C)C)[C@@H](C)CC` [LNFNYSLDMIIVD] (H-LNFNYSLDMIIVD-OH), 0.024 ± 0.005 µM; that for `CC[C@H](C)[C@H](NC(=O)[C@H](CCCCN)NC(=O)[C@H](Cc1c[nH]cn1)NC(=O)[C@H](CC(C)C)NC(=O)[C@H](CO)NC(=O)[C@H](Cc1ccc(O)cc1)NC(=O)[C@H](CC(N)=O)NC(=O)[C@H](Cc1ccccc1)NC(=O)[C@H](CC(N)=O)NC(=O)[C@@H](N)CC(C)C)C(=O)N[C@H](C(=O)N[C@H](C(=O)N[C@@H](CC(=O)O)C(=O)O)C(C)C)[C@@H](C)CC` [LNFNYSLHKIIVD] (H-LNFNYSLHKIIVD-OH), 0.087 ± 0.008 µM.
In turn, `CC[C@H](C)[C@H](NC(=O)[C@H](CCCCN)NC(=O)[C@H](CC(=O)O)NC(=O)[C@H](CC(C)C)NC(=O)[C@H](CO)NC(=O)[C@H](Cc1ccc(O)cc1)NC(=O)[C@H](CC(N)=O)NC(=O)[C@H](Cc1ccccc1)NC(=O)[C@H](CC(N)=O)NC(=O)[C@@H](N)CC(C)C)C(=O)N[C@@H](CCSC)C(=O)N[C@H](C(=O)N[C@@H](CC(=O)O)C(=O)O)C(C)C` [LNFNYSLDKIMVD] (H-LNFNYSLDKIMVD-OH) displayed a Kd of 0.28 ± 0.061 µM.
As for `CC[C@H](C)[C@H](NC(=O)[C@H](Cc1ccc(O)cc1)NC(=O)[C@H](CC(=O)O)NC(=O)[C@H](CC(C)C)NC(=O)[C@H](CO)NC(=O)[C@H](Cc1ccc(O)cc1)NC(=O)[C@H](CC(N)=O)NC(=O)[C@H](Cc1ccccc1)NC(=O)[C@H](CC(N)=O)NC(=O)[C@@H](N)CC(C)C)C(=O)N[C@H](C(=O)N[C@H](C(=O)N[C@@H](CC(=O)O)C(=O)O)C(C)C)[C@@H](C)CC` [LNFNYSLDYIIVD] (H-LNFNYSLDYIIVD-OH), the dissociation constant Kd is 0.041 ± 0.01 µM.
The result for `CC[C@H](C)[C@H](NC(=O)[C@H](CCCCN)NC(=O)[C@H](CC(=O)O)NC(=O)[C@H](CC(C)C)NC(=O)[C@H](CO)NC(=O)[C@H](Cc1ccc(O)cc1)NC(=O)[C@H](CC(N)=O)NC(=O)[C@H](Cc1ccccc1)NC(=O)[C@H](CC(N)=O)NC(=O)[C@@H](N)CC(C)C)C(=O)N[C@@H](CC(C)C)C(=O)N[C@H](C(=O)N[C@@H](CC(=O)O)C(=O)O)C(C)C` [LNFNYSLDKILVD] (H-LNFNYSLDKILVD-OH) reads 0.33 ± 0.068 µM; that for `CC[C@H](C)[C@H](NC(=O)[C@H](CCCCN)NC(=O)[C@H](CC(=O)O)NC(=O)[C@H](CC(C)C)NC(=O)[C@H](CO)NC(=O)[C@H](Cc1ccc(O)cc1)NC(=O)[C@H](CC(N)=O)NC(=O)[C@H](CCSC)NC(=O)[C@H](CC(N)=O)NC(=O)[C@@H](N)CC(C)C)C(=O)N[C@H](C(=O)N[C@H](C(=O)N[C@@H](CC(=O)O)C(=O)O)C(C)C)[C@@H](C)CC` [LNMNYSLDKIIVD] (H-LNMNYSLDKIIVD-OH), 0.6 ± 0.15 µM; that for `CC[C@H](C)[C@H](NC(=O)[C@H](CCCCN)NC(=O)[C@H](CC(=O)O)NC(=O)[C@H](CC(C)C)NC(=O)CNC(=O)[C@H](Cc1ccc(O)cc1)NC(=O)[C@H](CC(N)=O)NC(=O)[C@H](Cc1ccccc1)NC(=O)[C@H](CC(N)=O)NC(=O)[C@@H](N)CC(C)C)C(=O)N[C@H](C(=O)N[C@H](C(=O)N[C@@H](CC(=O)O)C(=O)O)C(C)C)[C@@H](C)CC` [LNFNYGLDKIIVD] (H-LNFNYGLDKIIVD-OH), 0.038 ± 0.005 µM.
On to `CC[C@H](C)[C@H](NC(=O)[C@H](Cc1c[nH]cn1)NC(=O)[C@H](CC(=O)O)NC(=O)[C@H](CC(C)C)NC(=O)[C@H](CO)NC(=O)[C@H](Cc1ccc(O)cc1)NC(=O)[C@H](CC(N)=O)NC(=O)[C@H](Cc1ccccc1)NC(=O)[C@H](CC(N)=O)NC(=O)[C@@H](N)CC(C)C)C(=O)N[C@H](C(=O)N[C@H](C(=O)N[C@@H](CC(=O)O)C(=O)O)C(C)C)[C@@H](C)CC` [LNFNYSLDHIIVD] (H-LNFNYSLDHIIVD-OH), for which binding was characterised by a dissociation constant (Kd) of 0.029 ± 0.009 µM.
The result for `CC[C@H](C)[C@H](NC(=O)[C@H](CCCCN)NC(=O)[C@H](CC(=O)O)NC(=O)[C@H](CC(C)C)NC(=O)[C@@H]1CCCN1C(=O)[C@H](Cc1ccc(O)cc1)NC(=O)[C@H](CC(N)=O)NC(=O)[C@H](Cc1ccccc1)NC(=O)[C@H](CC(N)=O)NC(=O)[C@@H](N)CC(C)C)C(=O)N[C@H](C(=O)N[C@H](C(=O)N[C@@H](CC(=O)O)C(=O)O)C(C)C)[C@@H](C)CC` [LNFNYPLDKIIVD] (H-LNFNYPLDKIIVD-OH) reads 0.29 ± 0.07 µM; that for `CC[C@H](C)[C@H](NC(=O)[C@H](CCCCN)NC(=O)[C@H](CC(=O)O)NC(=O)[C@H](CC(C)C)NC(=O)[C@H](CCSC)NC(=O)[C@H](Cc1ccc(O)cc1)NC(=O)[C@H](CC(N)=O)NC(=O)[C@H](Cc1ccccc1)NC(=O)[C@H](CC(N)=O)NC(=O)[C@@H](N)CC(C)C)C(=O)N[C@H](C(=O)N[C@H](C(=O)N[C@@H](CC(=O)O)C(=O)O)C(C)C)[C@@H](C)CC` [LNFNYMLDKIIVD] (H-LNFNYMLDKIIVD-OH), 0.146 ± 0.009 µM.
The result for `CC[C@H](C)[C@H](NC(=O)[C@H](CCCCN)NC(=O)[C@H](C)NC(=O)[C@H](CC(C)C)NC(=O)[C@H](CO)NC(=O)[C@H](Cc1ccc(O)cc1)NC(=O)[C@H](CC(N)=O)NC(=O)[C@H](Cc1ccccc1)NC(=O)[C@H](CC(N)=O)NC(=O)[C@@H](N)CC(C)C)C(=O)N[C@H](C(=O)N[C@H](C(=O)N[C@@H](CC(=O)O)C(=O)O)C(C)C)[C@@H](C)CC` [LNFNYSLAKIIVD] (H-LNFNYSLAKIIVD-OH) reads 0.051 ± 0.018 µM; that for `CC[C@H](C)[C@H](NC(=O)[C@H](CCCCN)NC(=O)[C@H](CC(=O)O)NC(=O)[C@H](CC(C)C)NC(=O)[C@H](CO)NC(=O)[C@H](Cc1ccc(O)cc1)NC(=O)[C@H](CC(N)=O)NC(=O)[C@H](Cc1ccccc1)NC(=O)[C@H](CC(N)=O)NC(=O)[C@@H](N)CC(C)C)C(=O)N[C@@H](Cc1c[nH]c2ccccc12)C(=O)N[C@H](C(=O)N[C@@H](CC(=O)O)C(=O)O)C(C)C` [LNFNYSLDKIWVD] (H-LNFNYSLDKIWVD-OH), 0.53 ± 0.05 µM; that for `CC[C@H](C)[C@H](NC(=O)[C@H](CCCCN)NC(=O)[C@H](CC(=O)O)NC(=O)[C@H](CC(C)C)NC(=O)[C@H](CCC(N)=O)NC(=O)[C@H](Cc1ccc(O)cc1)NC(=O)[C@H](CC(N)=O)NC(=O)[C@H](Cc1ccccc1)NC(=O)[C@H](CC(N)=O)NC(=O)[C@@H](N)CC(C)C)C(=O)N[C@H](C(=O)N[C@H](C(=O)N[C@@H](CC(=O)O)C(=O)O)C(C)C)[C@@H](C)CC` [LNFNYQLDKIIVD] (H-LNFNYQLDKIIVD-OH), 1.5 µM.
`CC[C@H](C)[C@H](NC(=O)[C@H](CCCCN)NC(=O)[C@H](CC(=O)O)NC(=O)[C@H](CC(C)C)NC(=O)[C@H](CC(=O)O)NC(=O)[C@H](Cc1ccc(O)cc1)NC(=O)[C@H](CC(N)=O)NC(=O)[C@H](Cc1ccccc1)NC(=O)[C@H](CC(N)=O)NC(=O)[C@@H](N)CC(C)C)C(=O)N[C@H](C(=O)N[C@H](C(=O)N[C@@H](CC(=O)O)C(=O)O)C(C)C)[C@@H](C)CC` [LNFNYDLDKIIVD] (H-LNFNYDLDKIIVD-OH) returned a Kd of 1.04 µM.
